Measured values taken from article PMC3479139, “Diverse Small Molecule Inhibitors of Human Apurinic/Apyrimidinic Endonuclease APE1 Identified from a Screen of a Large Public Collection” (PLoS ONE, 2012).

Legend:
APE1 [1] = target: T1, APE1 (Homo sapiens, UniProt P27695); experiment: Fluorogenic kinetic qHTS APE1 incision assay (primary screen and retest of cherrypicked samples); assay type: biochemical;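 further: purified APE1 cleaving a fluorophore/dark-quencher labelled 17-mer duplex DNA bearing a tetrahydrofuran AP site, fluorescence rise followed kinetically over the first 2 min, inhibition normalized to controls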
T1 construct: made in house

APE1 [2] = target: T1, APE1; experiment: Fluorescence polarization (FP) displacement assay of APE1 binding to AP-DNA probe; details: read-out: FP IC50;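 further: TAMRA 5′-labeled duplex DNA with THF abasic site (5 nM) and APE1 (20 nM), Mg2+-free buffer, 15 min at room temperature, inhibition seen as lowered polarization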
[3] = target: double-stranded 17-mer DNA fragment; experiment: ThO (Thiazole Orange) DNA displacement assay; assay type: binding; details: read-out: ThO-DNA binding IC50;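 further: miniaturized displacement of the intercalating dye from unlabeled duplex DNA, used to flag nonspecific DNA binders, chiefly intercalators, groove binders may be missed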
Text: The double-stranded 17-mer DNA fragment used in the ThO DNA binding assay was of the same sequence as the fluorogenic HTS substrate but carried no dye labels.
(§1) In order to screen out nonselective compounds, such as non-specific DNA binders and inhibitors of related enzymes, we used a miniaturized ThO DNA displacement assay and a counterscreen against the bacterial endonuclease E. coli Endo IV, respectively, following the previously published protocols [21].
To detect screening hits that inhibit APE1 activity through non-specific DNA interactions, we employed a previously established miniaturized ThO dye displacement assay [21]. […] We note that the ThO assay reports primarily on DNA binders acting through intercalation, while potentially missing other types of DNA binders, such as those acting through the minor groove.

E. coli Endo IV = target: T2, E. coli Endo IV (Escherichia coli, UniProt P0A6C1); experiment: E. coli Endo IV profiling counterscreen; assay type: biochemical; details: read-out: EndoIV IC50;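 further: selectivity counterscreen of candidate APE1 inhibitors against the bacterial endonuclease Endo IV, run in the same assay format as the primary APE1 high-throughput screen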
T2 construct: made in house
Text: as §1
To probe the selectivity of the candidate APE1 inhibitors, we tested them against E. coli EndoIV [36], employing the same assay as used in the HTS.

APE1 [4] = target: T1, APE1; experiment: Gel-based APE1 incision assay with fluorescence (TAMRA) detection; assay type: biochemical
Experimental: To test the compounds’ inhibitory activity after the primary screen, two assays designed to monitor the cleavage of substrate to product through electrophoretic separation were utilized. The radiotracer incision assay, utilizing a ^32P-labeled substrate, was performed essentially as described [21], [31], [32]. Incision reactions utilizing ^32P-labeled substrate were carried out for 5 min at 37°C. After the addition of an equal volume of stop buffer (0.05% bromophenol blue and xylene cyanol, 20 mM EDTA, 95% formamide), the substrate and product were separated on a standard polyacrylamide denaturing gel and quantified by PhosphorImager analysis [32]. […] APE1 cleavage of the substrate results in a 18-mer TAMRA-labeled fragment which was separated by a non-denaturing polyacrylamide gel electrophoresis and quantitated in a Gel Doc XR imaging system, BioRad (Hercules, CA). The advantage of this assay is that it can be used in a relatively high throughput mode with the inhibitors tested at a range of concentrations (0.17 µM to 125 µM was used here). APE1 (0.15 nM) was added to a reaction mixture of 20 µL containing assay buffer (40 mM HEPES pH 7.5, 50 mM NaCl, 1 mM MgCl2 and 2 mM DTT), and labeled ds DNA substrate (final 75 nM). The mixture was incubated at RT for 15 min, and the reaction was stopped by the addition 20 µL of 2X dye stop solution (10% glycerol, 20 mM EDTA and bromophenol blue). Then 10 µL of the mixture was resolved on 20% polyacrylamide gel in 1X Tris-borate EDTA running buffer at 250 V for 40 min.
To eliminate false positive hits, all 595 confirmed molecules were tested for their ability to inhibit APE1 incision activity using biochemical assays that involve electrophoretic separation of the substrate and cleavage product.

[5] = initial quantitative high-throughput screen, read-out: APE1 qHTS IC50
[6] = retest of cherrypicked sample, read-out: APE1 Retest IC50
[7] = entries 113-223: fluorophore detection, estimated IC50, read-out: Gel-based electrophoretic separation assay with fluorophore detection, estimated IC50 (column headed Radiotracer Assay (%Activity))
[8] = estimated IC50, fluorophore detection, entries 113-223, read-out: F-PAGE Assay IC50

T1 sequence (P27695 whole entry): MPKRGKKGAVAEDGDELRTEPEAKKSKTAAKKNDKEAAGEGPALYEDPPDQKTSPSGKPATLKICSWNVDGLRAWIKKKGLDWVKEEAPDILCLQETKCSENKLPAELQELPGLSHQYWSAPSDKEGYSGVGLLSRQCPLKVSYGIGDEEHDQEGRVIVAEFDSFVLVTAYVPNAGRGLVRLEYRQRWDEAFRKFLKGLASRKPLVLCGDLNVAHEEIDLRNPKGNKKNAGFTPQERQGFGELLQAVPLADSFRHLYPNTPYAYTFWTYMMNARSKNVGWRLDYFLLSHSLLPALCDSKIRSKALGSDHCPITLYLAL

Row | Structure (SMILES) | IC50 (APE1 [1]; [5]) | IC50 (APE1 [1]; [6]) | IC50 (APE1 [2]) | IC50 [3] | IC50 (E. coli Endo IV) | IC50 (APE1 [4]; [7]) | IC50 (APE1 [4]; [8])
1 | CCOC(=O)c1ccc2[nH]c(-c3ccc(S(=O)(=O)F)cc3)cc(=O)c2c1 [MLS000737558] | 18.9 µM | 14.5 µM | 20.4 µM | > 57 µM | 36.3 µM | 28.2 µM | 
2 | Nc1nc(=S)c2ncn(C3OC(CO)C(O)C3O)c2[nH]1 (centres unmarked) [MLS000738229] | 13.4 µM | 3.6 µM | > 57 µM | 28.9 µM | > 57 µM |  | 2.5 µM
3 | NS(=O)(=O)c1ccc(N=Nc2ccc(=O)[nH]c2O)cc1 [MLS000738241] | 7.5 µM | 12.9 µM | > 57 µM | > 57 µM | > 57 µM |  | 3.5 µM
4 | Cc1ccc(C)c(S(=O)(=O)Nc2ccc3oc(C)c(C(=O)O)c3c2)c1 [MLS000948181] | 13.4 µM | 20.4 µM | > 57 µM | > 57 µM | > 57 µM |  | 2.8 µM
5 | O=S(=O)(Nc1ccccc1)c1cccc2nsnc12 [MLS000999698] | 7.5 µM | 22.9 µM | 40.8 µM | > 57 µM | > 57 µM |  | 10 µM
6 | CC(=O)c1ccccc1NS(=O)(=O)c1cccc2nsnc12 [MLS001008046] | 5.3 µM | 8.1 µM | 28.9 µM | > 57 µM | > 57 µM |  | 5.6 µM
7 | COC(=O)c1ccn(CC(=O)NC2CCCCC2)n1 [MLS001030262] | 29.9 µM | 12.9 µM | > 57 µM | > 57 µM | > 57 µM |  | 5.6 µM
8 | O=C1C=C(c2ccc3cc[nH]c3c2)C[C@@H](c2ccc3c(c2)OCO3)C1 [MLS001060910] | 11.9 µM | 18.2 µM | > 57 µM | > 57 µM | > 57 µM |  | 3.2 µM
9 | CN(CC(=O)Nc1cccc(F)c1)C(=O)c1cccc(-n2cccc2)c1 [MLS001071694] | 3.4 µM | 5.1 µM | 22.9 µM | > 57 µM | > 57 µM |  | 5 µM
10 | CC(=O)Nc1ccc(S(=O)(=O)NCCC(=O)OCC(=O)N2CCN(C(=O)c3ccco3)CC2)cc1 [MLS001078987] | 16.8 µM |  | 20.4 µM | > 57 µM | > 57 µM | 22.4 µM | 
11 | CN(CC(=O)Nc1c(Cl)cccc1Cl)C(=O)c1cccc(-n2cccc2)c1 [MLS001079471] | 4.2 µM | 11.5 µM | 10.2 µM | > 57 µM | > 57 µM |  | 2.5 µM
12 | COCCN(C(=O)COC(=O)c1cc2c(s1)CCC2)c1c(N)n(Cc2ccccc2)c(=O)[nH]c1=O [MLS001080179] | 0.8 µM | 1.1 µM | > 57 µM | > 57 µM | > 57 µM |  | 0.3 µM
13 | COc1ccc(NC(=O)CN(C)C(=O)c2cc3c(s2)CCC3)cc1 [MLS001081306] | 1.9 µM | 7.3 µM | > 57 µM | 40.8 µM | > 57 µM |  | 0.1 µM
14 | COc1ccc(NC(=O)CN(C)C(=O)c2cccc(-n3cccc3)c2)cc1 [MLS001097639] | 2.4 µM | 18.2 µM | > 57 µM | > 57 µM | > 57 µM |  | 3.5 µM
15 | CCCN(C(=O)c1cccc(-n2cccc2)c1)c1c(N)n(Cc2ccccc2)c(=O)[nH]c1=O [MLS001098232] | 6.7 µM | 6.5 µM | 20.4 µM | > 57 µM | > 57 µM |  | 2.8 µM
16 | Cc1ccc(NC(=O)CN(C)C(=O)c2cc(-c3ccco3)nc3ccccc23)cc1 [MLS001099510] | 5.3 µM | 22.9 µM | > 57 µM | > 57 µM | > 57 µM |  | 3.5 µM
17 | CCN(CC(=O)Nc1c(F)cccc1F)C(=O)/C=C/c1ccc2ccccc2n1 [MLS001128172] | 1.7 µM | 20.4 µM | > 57 µM | > 57 µM | > 57 µM |  | 4 µM
18 | COc1cc(-c2nnc(COC(=O)c3ccc(C)o3)o2)cc(OC)c1OC [MLS001139127] | 23.8 µM | 32.4 µM | > 57 µM | > 57 µM | > 57 µM | 14.1 µM | 
19 | Nc1c(/C=C2/C=CC(=O)C(O)=C2)c(=O)nc2sc(CC(=O)N3CCCCC3)nn12 [MLS001139223] | 1.9 µM | 2 µM | > 57 µM | > 57 µM | > 57 µM |  | 2.5 µM
20 | Nc1c(/C=C2/C=CC(=O)C(O)=C2)c(=O)nc2sc(CC(=O)N3CCCC3)nn12 [MLS001139292] | 10.6 µM | 6.5 µM | > 57 µM | > 57 µM | > 57 µM |  | 1 µM
21 | O=C(c1cccc(-n2cccc2)c1)N1CCN(S(=O)(=O)c2ccccc2)CC1 [MLS001139594] | 1.5 µM | 11.5 µM | > 57 µM | > 57 µM | > 57 µM |  | 2.5 µM
22 | Cc1coc2c(C)c3oc(=O)c(CCC(=O)N[C@@H](C)C(=O)N[C@@H](Cc4ccccc4)C(=O)O)c(C)c3cc12 [MLS001140219] | 13.4 µM | 18.2 µM | > 57 µM | > 57 µM | > 57 µM | 20 µM | 
23 | Cc1cccc(NC(=O)CNC(=O)c2cccc(-n3cccc3)c2)c1C [MLS001141795] | 1.9 µM | 6.5 µM | > 57 µM | > 57 µM | > 57 µM |  | 1.1 µM
24 | COc1cccc(NC(=O)CN(C)C(=O)c2cc3c(s2)CCC3)c1 [MLS001142077] | 10.6 µM | 32.4 µM | > 57 µM | 20.4 µM | > 57 µM | 10 µM | 
25 | O=C(CSc1nc2sc3c(c2c(=O)n1-c1ccccc1)CCCC3)NN=Cc1ccccc1C(=O)O [MLS001147809] | 10.6 µM | 14.5 µM | > 57 µM | > 57 µM | > 57 µM | 12.6 µM | 
26 | Cc1cccc(NC(=O)CNC(=O)CCc2nc3sc4c(c3c(=O)[nH]2)CCCC4)c1C [MLS001156641] | 10.6 µM | 36.3 µM | > 57 µM | 45.7 µM | > 57 µM |  | 4 µM
27 | COc1cccc(NC(=O)CN(C)C(=O)c2cc(-c3ccco3)nc3ccccc23)c1 [MLS001156783] | 10.6 µM | 10.2 µM | > 57 µM | > 57 µM | > 57 µM |  | 7.9 µM
28 | CSCC[C@H](NS(=O)(=O)c1ccc(C(C)=O)cc1)c1nnc2ccccn12 [MLS001158971] | 21.2 µM | 9.1 µM | > 57 µM | > 57 µM | > 57 µM | 22.4 µM | 
29 | CCCCN(C(=O)c1cccc(-n2cccc2)c1)c1c(N)n(Cc2ccccc2)c(=O)[nH]c1=O [MLS001159279] | 2.7 µM | 12.9 µM | > 57 µM | > 57 µM | > 57 µM |  | 2.8 µM
30 | N#Cc1c(NC(=O)COC(=O)c2ccc(O)cc2O)sc2c1CCC2 [MLS001159876] | 11.9 µM | 18.2 µM | > 57 µM | 11.5 µM | > 57 µM | 11.2 µM | 
